Results taken from the NIST ThermoML archive (doi:10.1021/je900437b).
Numbers after ± are expanded uncertainties.

What was measured:
[1] = 101 kPa, Liquid; for speed of sound: Sing-around technique in a fixed-path interferometer; for mass density: Vibrating tube method
[2] = xn = mol fraction of the nth substance listed; settings: 101 kPa, Liquid, x1 = 1; for speed of sound: Sing-around technique in a fixed-path interferometer; for mass density: Vibrating tube method

CC(C)(N)CO [2-amino-2-methylpropan-1-ol]
[1]
Settings	mass density [kg/m3]	speed of sound [m/s]
293.15 K	936.751 ± 4.8	1501.4 ± 5
298.15 K	932.596 ± 4.7	1483.4 ± 5
303.15 K	928.395 ± 4.7	1461.2 ± 5
308.15 K	924.174 ± 4.6	1442.4 ± 5
313.15 K	919.945 ± 4.6	1423.8 ± 5
318.15 K	915.702 ± 4.6	1405.3 ± 5
323.15 K	911.431 ± 4.5	1386.9 ± 5

NCCO [2-aminoethan-1-ol]
[1]
Settings	mass density [kg/m3]	speed of sound [m/s]
293.15 K	1015.98 ± 0.24	1735.5 ± 1.3
298.15 K	1012.02 ± 0.24	1719.2 ± 1.3
303.15 K	1008 ± 0.24	1703.1 ± 1.3
308.15 K	1004.02 ± 0.23	1686.8 ± 1.3
313.15 K	1000.04 ± 0.23	1670.5 ± 1.3
318.15 K	996.029 ± 0.23	1654.2 ± 1.3
323.15 K	992.014 ± 0.23	1637.9 ± 1.3

NCCO [2-aminoethan-1-ol] + CC(C)(N)CO
[2]
Settings	mass density [kg/m3]	speed of sound [m/s]
293.15 K	1015.98 ± 0.24	1735.5 ± 1.3
298.15 K	1012.02 ± 0.24	1719.2 ± 1.3
303.15 K	1008 ± 0.24	1703.1 ± 1.3
308.15 K	1004.02 ± 0.23	1686.8 ± 1.3
313.15 K	1000.04 ± 0.23	1670.5 ± 1.3
318.15 K	996.029 ± 0.23	1654.2 ± 1.3
323.15 K	992.014 ± 0.23	1637.9 ± 1.3

NCCO [2-aminoethan-1-ol] + CN(CCO)CCO
[2]
Settings	mass density [kg/m3]	speed of sound [m/s]
293.15 K	1015.98 ± 0.24	1735.5 ± 1.3
298.15 K	1012.02 ± 0.24	1719.2 ± 1.3
303.15 K	1008 ± 0.24	1703.1 ± 1.3
308.15 K	1004.02 ± 0.23	1686.8 ± 1.3
313.15 K	1000.04 ± 0.23	1670.5 ± 1.3
318.15 K	996.029 ± 0.23	1654.2 ± 1.3
323.15 K	992.014 ± 0.23	1637.9 ± 1.3

NCCO [2-aminoethan-1-ol] + OCCN(CCO)CCO
[2]
Settings	mass density [kg/m3]	speed of sound [m/s]
298.15 K	1012.02 ± 0.24	1719.2 ± 1.3
303.15 K	1008 ± 0.24	1703.1 ± 1.3
308.15 K	1004.02 ± 0.23	1686.8 ± 1.3
313.15 K	1000.04 ± 0.23	1670.5 ± 1.3
318.15 K	996.029 ± 0.23	1654.2 ± 1.3
323.15 K	992.014 ± 0.23	1637.9 ± 1.3

CN(CCO)CCO [N-methyldiethanolamine]
[1]
Settings	mass density [kg/m3]	speed of sound [m/s]
293.15 K	1042.2 ± 0.92	1585.5 ± 2.1
298.15 K	1038.29 ± 0.92	1570.1 ± 2.1
303.15 K	1034.36 ± 0.91	1554.8 ± 2.1
308.15 K	1030.43 ± 0.9	1539.5 ± 2.1
313.15 K	1026.48 ± 0.89	1524.2 ± 2.1
318.15 K	1022.53 ± 0.88	1508.8 ± 2.1
323.15 K	1018.58 ± 0.88	1493.4 ± 2.1

OCCN(CCO)CCO [triethanolamine]
[1]
Settings	mass density [kg/m3]	speed of sound [m/s]
298.15 K	1120.82 ± 0.33	1610.5 ± 1.3
303.15 K	1118.06 ± 0.32	1600.5 ± 1.3
308.15 K	1115.26 ± 0.32	1595.5 ± 1.3
313.15 K	1112.4 ± 0.32	1587 ± 1.3
318.15 K	1109.6 ± 0.32	1578.8 ± 1.3
323.15 K	1106.78 ± 0.32	1570.6 ± 1.3
